Tested on: Plasmodium berghei
Assay: Luciferase/luciferin-expressing antifolate-resistant parasites were used to infect a culture of HepG2 cells that were pre-incubated with compounds. Infected hepatocytes emit light due to the luciferase reaction. Assay results are presented as the percent inhibition of light emission compared to control. […]
Type: functional
Settings: sporozoite; for IC90: read-out: LUCIFERASE INFECTION ASSAY - IC90

CC(=O)N1CCCC(c2cc(C(=O)Nc3ccccc3)no2)C1 (stereo not drawn)
IC50 (FFLUC_HILL_SLOPE 1.94, FFLUC_R_SQUARED 0.745, PBLUC_HILL_SLOPE 0.811, PBLUC_R_SQUARED 0.626, read-out: LUCIFERASE INFECTION ASSAY - IC50): 0.0959 µM | IC90: 1.44 µM

CCc1c(C)sc2nc(SCC3COc4ccccc4O3)n(-c3ccc(O)cc3C)c(=O)c12 (stereo not drawn)
IC50 (FFLUC_HILL_SLOPE 1.97, FFLUC_R_SQUARED 0.841, read-out: LUCIFERASE INFECTION ASSAY - IC50): > 10 µM | IC90: > 10 µM

COc1ccccc1NS(=O)(=O)c1ccc2c(c1)N=Cc1c(F)cccc1O2
IC50 (FFLUC_HILL_SLOPE 2, FFLUC_R_SQUARED 0.88, HEPG2TOX_HILL_SLOPE 51.5, HEPG2TOX_R_SQUARED 0.639, PBLUC_HILL_SLOPE 12.2, PBLUC_R_SQUARED 0.289, read-out: LUCIFERASE INFECTION ASSAY - IC50): 9.2 µM | IC90: > 10 µM

O=C(OCc1cc(=O)oc2cc(O)ccc12)c1c2c(nc3ccccc13)/C(=C/c1ccc([N+](=O)[O-])cc1)CCC2
IC50 (FFLUC_HILL_SLOPE 2.06, FFLUC_R_SQUARED 0.63, PBLUC_HILL_SLOPE 4.67, PBLUC_R_SQUARED 0.673, read-out: LUCIFERASE INFECTION ASSAY - IC50): 7.7 µM | IC90: > 10 µM

N#CCOc1cc(Cl)cc(Cl)c1
IC50 (FFLUC_HILL_SLOPE 1.89, FFLUC_R_SQUARED 0.0257, read-out: LUCIFERASE INFECTION ASSAY - IC50): > 16.3 µM | IC90: > 16.3 µM

O=C(Nc1cccc(C(F)(F)F)c1)OCCSc1ccc([N+](=O)[O-])c2nonc12
IC50 (FFLUC_HILL_SLOPE 1.97, FFLUC_R_SQUARED 0.686, HEPG2TOX_HILL_SLOPE 15.6, HEPG2TOX_R_SQUARED 0.779, read-out: LUCIFERASE INFECTION ASSAY - IC50): > 7.7 µM | IC90: > 7.7 µM

COc1ccc(-c2n[nH]c(SC(C(=O)Nc3cc(Cl)cc(Cl)c3)c3ccccc3)nc2=O)cc1 (stereo not drawn)
IC50 (FFLUC_HILL_SLOPE 1.9, FFLUC_R_SQUARED 0.863, HEPG2TOX_HILL_SLOPE 8.67, HEPG2TOX_R_SQUARED 0.533, PBLUC_HILL_SLOPE 16.2, PBLUC_R_SQUARED 0.618, read-out: LUCIFERASE INFECTION ASSAY - IC50): 3.27 µM | IC90: 3.75 µM

CCOc1ccc(NC(=O)c2ccccc2NC(=O)COC(=O)/C(=C/c2cc(OC)c(OC)c(OC)c2)c2ccc(-c3ccccc3)cc2)cc1
IC50 (FFLUC_HILL_SLOPE 2.07, FFLUC_R_SQUARED 0.755, PBLUC_HILL_SLOPE 3.07, PBLUC_R_SQUARED 0.285, read-out: LUCIFERASE INFECTION ASSAY - IC50): 6.17 µM | IC90: > 10 µM

CC1=C(C(=O)Nc2cc(C)on2)C(c2csc(-c3ccc(Cl)cc3)n2)NC(=S)N1C1CC1 (stereo not drawn)
IC50 (FFLUC_HILL_SLOPE 2.07, FFLUC_R_SQUARED 0.469, PBLUC_HILL_SLOPE 2.7, PBLUC_R_SQUARED 0.533, read-out: LUCIFERASE INFECTION ASSAY - IC50): 4.34 µM | IC90: 9.79 µM

N#Cc1c(Cl)cccc1N1CCOCC1
IC50 (FFLUC_HILL_SLOPE 1.9, FFLUC_R_SQUARED 0.649, HEPG2TOX_HILL_SLOPE 2.33, HEPG2TOX_R_SQUARED 0.905, PBLUC_HILL_SLOPE 3.58, PBLUC_R_SQUARED 0.165, read-out: LUCIFERASE INFECTION ASSAY - IC50): 14.1 µM | IC90: > 14.8 µM

CC(C)(C)C(=O)/C=c1\[nH]c(=O)/c(=C\c2ccc(-c3ccc(S(=O)(=O)N4CCOCC4)cc3)o2)s1
IC50 (FFLUC_HILL_SLOPE 2, FFLUC_R_SQUARED 0.892, read-out: LUCIFERASE INFECTION ASSAY - IC50): > 10 µM | IC90: > 10 µM

CCCCNC(=O)c1c(NC(=O)c2ccccc2)nc2ccccn12
IC50 (FFLUC_HILL_SLOPE 2.02, FFLUC_R_SQUARED 0.16, HEPG2TOX_HILL_SLOPE 0.796, HEPG2TOX_R_SQUARED 0.541, PBLUC_HILL_SLOPE 4.74, PBLUC_R_SQUARED 0.419, read-out: LUCIFERASE INFECTION ASSAY - IC50): 4.95 µM | IC90: 7.86 µM

CCCCNC(=O)c1c(NC(=O)c2cccc(C(F)(F)F)c2)nc2ccc(C)cn12
IC50 (FFLUC_HILL_SLOPE 2.04, FFLUC_R_SQUARED 0.518, HEPG2TOX_HILL_SLOPE 1.13, HEPG2TOX_R_SQUARED 0.759, PBLUC_HILL_SLOPE 2.77, PBLUC_R_SQUARED 0.788, read-out: LUCIFERASE INFECTION ASSAY - IC50): 0.453 µM | IC90: 1 µM

Cc1cn2c(CC(=O)Nc3ccc(C(F)(F)F)cc3)csc2n1
IC50 (FFLUC_HILL_SLOPE 1.95, FFLUC_R_SQUARED 0.137, HEPG2TOX_HILL_SLOPE 2.23, HEPG2TOX_R_SQUARED 0.859, PBLUC_HILL_SLOPE 8.61, PBLUC_R_SQUARED 0.683, read-out: LUCIFERASE INFECTION ASSAY - IC50): 4.03 µM | IC90: 5.2 µM

CCOC(=O)c1c(-c2ccc(C)cc2C)csc1NC(=O)COC(=O)c1cc(OC)c(OC)cc1[N+](=O)[O-]
IC50 (FFLUC_HILL_SLOPE 2.01, FFLUC_R_SQUARED 0.464, HEPG2TOX_HILL_SLOPE 2.45, HEPG2TOX_R_SQUARED 0.944, PBLUC_HILL_SLOPE 17.4, PBLUC_R_SQUARED 0.281, read-out: LUCIFERASE INFECTION ASSAY - IC50): 8.38 µM | IC90: 9.51 µM

Cc1nn(-c2ccccc2)c2sc(-c3[nH]nc(-c4ccccc4)c3-c3nc4ccccc4[nH]3)cc12
IC50 (FFLUC_HILL_SLOPE 1.87, FFLUC_R_SQUARED 0.663, HEPG2TOX_HILL_SLOPE 0.372, HEPG2TOX_R_SQUARED 0.356, PBLUC_HILL_SLOPE 1.24, PBLUC_R_SQUARED 0.688, read-out: LUCIFERASE INFECTION ASSAY - IC50): 1.3 µM | IC90: 7.66 µM

CN(C)c1cccc(-c2cnc3sc(NCCc4ccc(S(N)(=O)=O)cc4)nn23)c1
IC50 (FFLUC_HILL_SLOPE 1.97, FFLUC_R_SQUARED 0.664, read-out: LUCIFERASE INFECTION ASSAY - IC50): > 7.46 µM | IC90: > 7.46 µM

Clc1ccc(-c2nc3ncc(Br)cc3[nH]2)cc1
IC50 (FFLUC_HILL_SLOPE 1.95, FFLUC_R_SQUARED 0.684, PBLUC_HILL_SLOPE 3.28, PBLUC_R_SQUARED 0.422, read-out: LUCIFERASE INFECTION ASSAY - IC50): 1.92 µM | IC90: 3.76 µM

Cc1cccc(Cn2nc(C(C)(C)C)cc2-c2nnc(SCc3c(F)cccc3Cl)n2C2CCCCC2)c1
IC50 (FFLUC_HILL_SLOPE 2.05, FFLUC_R_SQUARED 0.435, PBLUC_HILL_SLOPE 2, PBLUC_R_SQUARED 0.623, read-out: LUCIFERASE INFECTION ASSAY - IC50): 4.03 µM | IC90: > 5.98 µM

O=C(NC1CCCCC1)c1ccccc1-n1ncc(Cl)c(Cl)c1=O
IC50 (FFLUC_HILL_SLOPE 2.05, FFLUC_R_SQUARED 0.721, HEPG2TOX_HILL_SLOPE 15.4, HEPG2TOX_R_SQUARED 0.582, PBLUC_HILL_SLOPE 17.3, PBLUC_R_SQUARED 0.758, read-out: LUCIFERASE INFECTION ASSAY - IC50): 3.34 µM | IC90: 3.79 µM

Cc1nn(-c2ccccc2)c(N2CCCCC2)c1/C=N/Nc1cc(-c2ccccc2)c2ccccc2n1
IC50 (FFLUC_HILL_SLOPE 1.88, FFLUC_R_SQUARED 0.83, PBLUC_HILL_SLOPE 15.6, PBLUC_R_SQUARED 0.0616, read-out: LUCIFERASE INFECTION ASSAY - IC50): 8.96 µM | IC90: > 10 µM

N#C/C(=N\Nc1cc(C(F)(F)F)cc(C(F)(F)F)c1)S(=O)(=O)c1ccc(Cl)cc1
IC50 (FFLUC_HILL_SLOPE 2.02, FFLUC_R_SQUARED 0.178, HEPG2TOX_HILL_SLOPE 2.35, HEPG2TOX_R_SQUARED 0.941, PBLUC_HILL_SLOPE 1.74, PBLUC_R_SQUARED 0.757, read-out: LUCIFERASE INFECTION ASSAY - IC50): 0.488 µM | IC90: 1.73 µM

O=C(Nc1cc(Cl)cc(Cl)c1)c1cc(Cl)c(-n2cccc2)c(Cl)c1
IC50 (FFLUC_HILL_SLOPE 1.91, FFLUC_R_SQUARED 0.0412, HEPG2TOX_HILL_SLOPE 16.8, HEPG2TOX_R_SQUARED 0.892, PBLUC_HILL_SLOPE 9.75, PBLUC_R_SQUARED 0.262, read-out: LUCIFERASE INFECTION ASSAY - IC50): 3.47 µM | IC90: 4.35 µM

O=[N+]([O-])c1c(Sc2ccc(Cl)cc2)ccc2nsnc12
IC50 (FFLUC_HILL_SLOPE 1.96, FFLUC_R_SQUARED 0.577, HEPG2TOX_HILL_SLOPE 12.8, HEPG2TOX_R_SQUARED 0.787, PBLUC_HILL_SLOPE 2.81, PBLUC_R_SQUARED 0.465, read-out: LUCIFERASE INFECTION ASSAY - IC50): 3.88 µM | IC90: 8.49 µM

CSc1sc(C(=O)Nc2ccc(F)c(Cl)c2)c(-c2ccc(Cl)cc2)c1C#N
IC50 (FFLUC_HILL_SLOPE 1.91, FFLUC_R_SQUARED 0.467, read-out: LUCIFERASE INFECTION ASSAY - IC50): > 7.55 µM | IC90: > 7.55 µM

COc1ccccc1-c1noc(-c2cc3c(s2)CCCCC3)n1
IC50 (FFLUC_HILL_SLOPE 2.02, FFLUC_R_SQUARED 0.0931, PBLUC_HILL_SLOPE 0.909, PBLUC_R_SQUARED 0.727, read-out: LUCIFERASE INFECTION ASSAY - IC50): 0.0754 µM | IC90: 0.846 µM

CCOC(=O)c1oc2ccccc2c1CSc1nc2ccccc2c(=O)n1Cc1ccccc1
IC50 (FFLUC_HILL_SLOPE 1.98, FFLUC_R_SQUARED 0.579, HEPG2TOX_HILL_SLOPE 1.74, HEPG2TOX_R_SQUARED 0.914, PBLUC_HILL_SLOPE 15.9, PBLUC_R_SQUARED 0.125, read-out: LUCIFERASE INFECTION ASSAY - IC50): 3.6 µM | IC90: 4.13 µM

COc1cc(NC(=O)COC(=O)c2c(C)nn(Cc3ccc(Cl)cc3Cl)c2Cl)c(C)cc1[N+](=O)[O-]
IC50 (FFLUC_HILL_SLOPE 1.94, FFLUC_R_SQUARED 0.846, read-out: LUCIFERASE INFECTION ASSAY - IC50): > 10 µM | IC90: > 10 µM

O=[N+]([O-])c1cnc(Sc2nnc(O)n2C2CCCCC2)s1
IC50 (FFLUC_HILL_SLOPE 1.98, FFLUC_R_SQUARED 0.448, HEPG2TOX_HILL_SLOPE 4.19, HEPG2TOX_R_SQUARED 0.922, PBLUC_HILL_SLOPE 12.6, PBLUC_R_SQUARED 0.344, read-out: LUCIFERASE INFECTION ASSAY - IC50): 8.19 µM | IC90: 9.75 µM

Source: ChEMBL document CHEMBL4483862, “Open-source discovery of chemical leads for next-generation chemoprotective antimalarials” (2018)
